Results from patent US7297660B2, “Alkylene carbonate adjuvants” (Huntsman Petrochemical Corporation, priority 2001, dated 2007).
Where two headings read alike, the source gives them in different places.

Assays:
[1] = tested on: velvetleaf; assay: Bioefficacy testing with glyphosate, velvetleaf control; type: in vivo
Protocol: (§1) The adjuvancy of alkylene carbonates with glyphosate was then tested. Bioefficacy testing was conducted on lambsquarters and velvetleaf weeds. The mono-isopropylamine salt of glyphosate was applied to velvetleaf and lambsquarters weeds at 0.25 lb ae/acre, and the adjuvant mixtures were present at 0.1 v/v%. The spray volume was 20 gal/acre, and application was made at 25 psig.
(§2) Evaluations, with the same adjuvant mixtures listed above, were also made with ammonium sulfate (AMS) at 17 lb/100 gallons water carrier. For control purposes, a group of plants was not treated with any glyphosate, and another group of plants was treated with only glyphosate.
(§3) The two alkylene carbonate blends of PC and BC were compared to diethylene glycol (DEG) as a standard solvent in combination with two different nonionic surfactant systems. One surfactant system was a SURFONIC® N-95 alkyl phenol ethoxylate, and the second surfactant system was a SURFONIC® DDA-8 branched alcohol ethoxylate. (SURFONIC® brand ethoxylates are commercially available from Huntsman Petrochemical Corporation, Houston, Tex.).
(§4) The results are expressed in terms of percent control, where 0% represents no plant necrosis, and 100% represents complete plant necrosis.

[2] = tested on: lambsquarters; assay: Bioefficacy testing with glyphosate, lambsquarters control; type: in vivo
Protocol: as §1, §2, §3, §4

[3] = free acid form; cited from earlier work
[4] = Hansen Solubility Parameters of JEFFSOL brand alkylene carbonates
[5] = Dipole moment; type: physicochemical; settings: 40° C.
[6] = Surface tension; type: physicochemical
[7] = tested on: mammals; settings: in vivo; cited from earlier work
[8] = tested on: skin; settings: neat; cited from earlier work
[9] = tested on: dogs; settings: 21-day test; cited from earlier work
[10] = tested on: Rat Hepatocyte Primary Culture; settings: Rat Hepatocyte Primary Culture/DNA Repair Test; cited from earlier work
[11] = tested on: rabbits; settings: undiluted; cited from earlier work
[12] = tested on: activated sludge bacteria taken from a wastewater treatment plant; settings: 7 day test at 300 ppm; cited from earlier work
[13] = criteria promulgated by the European Union; cited from earlier work
[14] = tested on: guinea pigs; settings: 21-day test; cited from earlier work
[15] = cited from earlier work

Structure (SMILES) | Hansen Sol Par, dispersive [4] [cal^1/2 cm^−3/2] | Hansen Sol Par, hydrogen bonding [4] [cal^1/2 cm^−3/2] | Hansen Sol Par, polar [4] [cal^1/2 cm^−3/2] | Hansen Sol Par, total [4] [cal^1/2 cm ^−3/2] | Dipole Moment [5] [Debyes] | Surface Tension ([6]; 25° C. (* = supercooled)) | Surface Tension ([6]; 40° C.) [dynes/cm] | toxicity towards mammals [7] | further results
N.N.O=S(=O)(O)O [AMS, ammonium sulfate] | – | – | – | – | – | – | – | – | velvetleaf necrosis, overall ([1]; FIG. 2, glyphosate with AMS 17 lb/100 gallons): dramatically increases velvetleaf necrosis; lambsquarters control, overall efficacy ([2]; FIG. 4, glyphosate with AMS 17 lb/100 gallons): does not produce the dramatic improved efficacy
O=C(O)CNCP(=O)(O)O [glyphosate, N-phosphonomethylglycine, reference compound] | – | – | – | – | – | – | – | – | velvetleaf control (necrosis), overall ([1]; FIG. 1, glyphosate IPA salt 0.25 lb ae/acre, adjuvant 0.1 v/v%, no AMS): very little observed necrosis; lambsquarters control (necrosis/kill), overall ([2]; FIG. 3, glyphosate 0.25 lb ae/acre, adjuvant 0.1 v/v%, no AMS): very little observed necrosis; water solubility [3]: low water solubility
CCC1COC(=O)O1 (stereo not drawn) [BC, 1,2-butylene carbonate] | 8.3 | 4.8 | 3.0 | 10.0 | 5.28 | 38.1 dynes/cm | 37.0 | relatively low toxicity | –
CC1COC(=O)O1 (stereo not drawn) [PC, propylene carbonate] | 9.8 | 2.0 | 8.8 | 13.3 | 4.98 | 40.9 dynes/cm | 39.6 | relatively low toxicity | skin irritation [8]: moderate skin irritation; toxicity by inhalation [9]: non-toxic; genotoxicity [10]: negative; LD50 [11]: > 20 mL/kg; adverse effects on activated sludge bacteria [12]: did not show adverse effects; biodegradability [13]: very readily biodegradable; toxicity by inhalation [14]: non-toxic
CNC(=O)CSP(=S)(OC)OC [Cygon, dimethoate] | – | – | – | – | – | – | – | – | time to lose 50 percent of pest control power ([15]; mixed in water of pH 9): 48 min; time to lose 50 percent of pest control power ([15]; pH of 6): 720 min
O=C1OCCO1 [EC, ethylene carbonate] | – | – | – | – | 4.80 | 44.0* dynes/cm | 42.2 | – | –
